The values that follow come from patent publication US20240150396A1 (The Texas A&M University System, priority 2021, published 2024).

“And” between values parts separate entries of the source, which are not always exact repeats. Identical values can stand only once. Like-named read-outs stand apart in the source and are kept apart here. Residues, ends and D or L forms follow the SMILES beside them. *: point of attachment. Cbz = O=C(OCc1ccccc1)*

One data set has as its target cruzain (Trypanosoma cruzi, UniProt P25779). As to the kind of experiment: biochemical. The following applies: for Ki: pH 7.5. On the procedure: All enzyme assays were performed at 25° C. Initial rates of the peptidolytic reaction catalyzed by cruzain were measured by monitoring the fluorescence generated by cleavage of the dipeptide-AMC bond. Assays were conducted in 96-well plates (Greiner; flat-bottom, clear black plates) in a total volume of 250 μL, containing either 50 mM MES (pH 7.5), 50 mM TAPSO, 100 mM DEA, 1 mM CHAPS, 1 mM Na2EDTA, 5 mM DTT, and 10% DMSO (v/v) or 50 mM sodium acetate (pH 5.5), 50 mM MES, 100 mM TEA, 1 mM CHAPS, 1 mM Na2EDTA, 5 mM DTT, and 10% DMSO (v/v). Substrates were dissolved in 100% DMSO and were then diluted 10-fold such that when added to reaction mixtures, final DMSO concentration was 10% (v/v). […] Fluorescence was measured on either a SpectraMax M5 (Molecular Devices) or a Synergy HTX (BioTek, Winooski, VT) microplate reader (λex=360 nm, λem=460 nm). Initial rates were determined from continuous kinetic time courses and calculated from the earliest time points, typically at less than 10 min.
(2) Enzyme and compound were preincubated over extended periods of time, and then aliquots were removed and diluted 50-fold to 100-fold into reaction mixtures containing 10 μM Cbz-Phe-Arg-AMC, followed by the assessment of the resulting time courses.
Data for time-dependent inhibition were fitted by several methods.
Values of kobs versus [inhibitor] were then replotted and fitted to eq 4 for which k3 and k4 represent the respective rates of formation and dissolution of the EI* complex as depicted in FIG. 9.
In addition, time-course data were fitted globally by two methods. First, expressions for vs, vi, and kobs were substituted into eq 3 to generate eq 6, which was used to fit time-course data at all concentrations of inhibitors simultaneously. Second, time-course data were fitted using KinTek Explorer as either a single-binding step model with the two kinetic parameters k3/Ki and k4 or a two-step binding mechanism as shown in FIG. 9 from which rate constants k1-k4 are determined (Supporting Information).
Enzyme Assays. The preparation of cruzain and 3CL^pro were described in previous publications.^8, 34 The evaluation of inhibitors was modified from our lab protocol and described briefly as follows.^35 All enzyme assays were conducted in 96-well, clear bottom, black plates at 25° C., and fluorescence emanating from product formation was measured using either a SpectraMax M5 (Molecular Devices) or a Synergy HTX (Biotek) microplate reader, with excitation at λex=360 nm and emission at λem=460 nm. […] Reactions were started with addition of enzyme (typically, to a final concentration of 0.2 nM for cruzain or 40 nM for 3CL^pro), and the time courses were recorded for 0.5-1 h.
Kinetic Data Analysis. All time-course data were fitted to eq. 1, wherein P is the fluorescence generated by formation of AMC or liberated ACC, C is the background constant, vi and vs are respectively initial-state and steady-state reaction rates, t is time, and kobs is the observed rate of conversion of the initial inhibited rate to the final inhibited rate.^46
Overall inhibition constants (Ki* values) were obtained by fitting vs/v0 to eq. 4, wherein vs and v0 are steady-state reaction rates in the presence and absence of inhibitor respectively, [S] and [I] represent the fixed concentration of substrate and variable inhibitor, Km is the Michaelis constant of the substrate.

Data set [1] in a line: Thiolation of inhibitors with glutathione, LCMS. The class given is physicochemical. The following applies: 0.5 mM compound, Tris pH 8.0, 10% DMSO. On the procedure:
Samples were analyzed by HPLC-MS (as described above) by injecting 0.01 mL aliquots onto a Luna […] C18(2) 100 Å, 4.6 mm, 50 mm column (Phenomenex) using the HPLC method described in the chemistry section at 0-6 h time points. […] Integration of the chromatographic peaks of the inhibitors and their GSH adducts at each time point was used to determine the rate of GSH adduct formation.

Data set [2] relates to T. cruzi (Ca-I/72) in C2C12 murine cardiomyoblasts. As to the kind of experiment: T. cruzi-infected murine cardiomyoblasts (C2C12). It counts as cell-based, Trypanosoma cruzi. The following applies: read-out: EC50 T. cruzi-infected cardiomyoblasts. The procedure:
For the evaluation of the antitrypanocidal activity of cruzain inhibitors, we infected a C2C12 mouse cardiomyoblast cell line (ATCC CRL-1772) with T. cruzi strain Ca-I/72 (a gift from James Dvorak, National Institutes of Health) in […] plates. […] The plates were incubated at 37° C. for 48 h, and the wells were fixed with 2% paraformaldehyde in PBS and stained with 5 μg mL-1 4,6-diamidino-2-phenylindole. After at least 30 min of incubation at room temperature in the dark, the plates were read in an automated microscope, ImageXpress Micro XL (Molecular Devices), and the images were analyzed by custom-built software to quantify and assess viability of the parasites, as well as the host cells independently. The compilation of data was used to calculate the antiparasitic activity (EC50) and host cytotoxicity (CC50).
T. cruzi infection was evaluated in C2C12 murine cardiomyoblast cells. 384-microwell plates containing C2C12 murine cardiomyoblast cells were infected with 10^3 and 10^4 cells of T. cruzi (Ca-I/72), to which was added 3-fold serially-dilutions of inhibitor with maximal concentrations of 10 μM, followed by incubation at 37° C. for 2 days. The wells were fixed with 2% PFA in PBS, and stained by 5 μg/ml of DAPI. After >30 min of incubation in a dark environment, the plates were read on an ImageXpress MicroXL microscope (Molecular Devices). The images were analyzed to quantify parasites as well host cells.

A short description of data set [3]: Host cell cytotoxicity in the T. cruzi infection model. The class given is cell-based, mouse. The following applies: mouse; host cardiomyoblasts; read-out: C2C12 Cytotoxicity CC50. On the procedure:
The plates were incubated at 37° C. for 48 h, and the wells were fixed with 2% paraformaldehyde in PBS and stained with 5 μg mL-1 4,6-diamidino-2-phenylindole. After at least 30 min of incubation at room temperature in the dark, the plates were read in an automated microscope, ImageXpress Micro XL (Molecular Devices), and the images were analyzed by custom-built software to quantify and assess viability of the parasites, as well as the host cells independently. The compilation of data was used to calculate the antiparasitic activity (EC50) and host cytotoxicity (CC50).
T. cruzi infection was evaluated in C2C12 murine cardiomyoblast cells. […] The wells were fixed with 2% PFA in PBS, and stained by 5 μg/ml of DAPI. After >30 min of incubation in a dark environment, the plates were read on an ImageXpress MicroXL microscope (Molecular Devices). The images were analyzed to quantify parasites as well host cells.

Data set [4] concerns T. b. brucei procyclic forms. As to the kind of experiment: Growth of axenic cultures of T. b. brucei procyclic forms (PCFs). The class given is cell-based, Trypanosoma brucei brucei. The following applies: for EC50: axenic culture, read-out: EC50 T. b. brucei PCF.
Data set [5] has as its system T. cruzi epimastigotes (strain Y). Briefly: Growth of axenic cultures of T. cruzi epimastigotes. The following applies: for T. cruzi axenic culture EC50: epimastigotes.
Description: Selected cruzain inhibitors in axenic cell cultures of Trypanosoma brucei brucei (procyclic trypomastigotes; ATCC PRA-381) and Trypanosoma cruzi (epimastigote forms; strain Y, ATCC 50832GFP) were tested. T. b. brucei is grown in SDM-79 medium, and T. cruzi is grown in ATCC medium (1029 LIT medium). Both media included fetal calf serum (10%) and penicillin/streptomycin (50 U/mL). […] T. brucei and T. cruzi (5 mL in flask cultures) at 26° C. were seeded at ˜3×10^6 cells, and diluted daily maintaining a mid-log growth phase for up to 100 hrs. Cell counts were scored using a Z2 Coulter Counter. After each cell dilution, fresh compound or an equal volume of DMSO (control samples), was supplemented into the cultures. […] Cruzain inhibitors where the highest concentration reflects the upper limit of solubilities of the inhibitors in 1% (v/v) DMSO solutions were evaluated. These inhibitors are likely to bind to proteins in fetal calf serum, and for these reasons, fresh inhibitors were added each time cells were re-fed.
Selected cruzain inhibitors were evaluated in axenic cell cultures of T. b. brucei and T. cruzi. Procyclic trypomastigotes of T. b. brucei (ATCC PRA-381) were grown in the SDM-79 medium at 26° C., and bloodstream forms (ATCC PRA-383) were grown at 37° C. in the HMI-9 medium at 5% C02. T. cruzi (epimastigote forms, strain Y, ATCC 50832GFP) was grown in the ATCC medium (1029 LIT medium). Both forms of T. b. brucei and T. cruzi were grown in media containing 10% fetal bovine serum (FBS) and penicillin/streptomycin (50 U mL^−1). […] Control samples contained equal amounts of DMSO. T. b. brucei and T. cruzi (5 mL in flask cultures) were seeded at ˜3×10^6 cells and diluted daily, maintaining a mid-log growth phase for up to 120 h. […] After each cell dilution, fresh compound or an equal volume of DMSO (control samples) was supplemented into the cultures, while maintaining a constant concentration of each inhibitor. Cell counts were scored using a Z2 Coulter Counter.
The subject of a further data set is human dermal fibroblasts. Briefly: Human cell toxicity, resazurin viability. The class given is cell-based. The following applies: human dermal fibroblasts; read-out: Human Cell Cytotoxicity CC50. On the procedure: Primary human dermal fibroblast (HDF) cells were used to evaluate human cell toxicity of cruzain inhibitors. HDF cells were plated in a 384-well plate at 2400 cells per well (62,000 cells mL^−1). Inhibitors in 100% DMSO were added in duplicate to final concentrations of 0.001-0.1 mM and 1% DMSO (v/v) with 1% DMSO as a control sample, and cells were cultured at 37° C. for 48 h, followed by the addition of resazurin. Cell viability was then assessed by reading of fluorescence (excitation/emission: 544 nm/590 nm) after an additional 24 h of incubation.
On the technique in general: The colour change of resazurin is a common sign of viable cells or microbes.

Data set [6] concerns T. b. brucei bloodstream forms. Briefly: Growth of axenic cultures of T. b. brucei bloodstream forms (BSFs). The following applies: read-out: EC50 T. b. brucei BSF; axenic culture.
Description: Selected cruzain inhibitors were evaluated in axenic cell cultures of T. b. brucei and T. cruzi. Procyclic trypomastigotes of T. b. brucei (ATCC PRA-381) were grown in the SDM-79 medium at 26° C., and bloodstream forms (ATCC PRA-383) were grown at 37° C. in the HMI-9 medium at 5% C02. […] Both forms of T. b. brucei and T. cruzi were grown in media containing 10% fetal bovine serum (FBS) and penicillin/streptomycin (50 U mL^−1). […] Control samples contained equal amounts of DMSO. T. b. brucei and T. cruzi (5 mL in flask cultures) were seeded at ˜3×10^6 cells and diluted daily, maintaining a mid-log growth phase for up to 120 h. […] After each cell dilution, fresh compound or an equal volume of DMSO (control samples) was supplemented into the cultures, while maintaining a constant concentration of each inhibitor. Cell counts were scored using a Z2 Coulter Counter.
In vitro Cell Assays. Bloodstream form T. b. brucei strain SM427 was grown in HM1-9 medium that included fetal bovine serum (10%) and antibiotics (100 U/mL penicillin-streptomycin, Gibco™). Inhibitors dissolved in 100% (v/v) DMSO stock solutions were added at final concentrations of 0.5-20 μM (final concentrations of DMSO were <1% (v/v)). T. b. brucei were seeded at ˜1×10^6 cells at 37° C., and diluted daily to maintain a log phase of growth for up to 96 h. […] After each dilution, the cell cultures were supplemented with inhibitor or DMSO (control) to keep concentrations constant. Cell density was determined and graphed as previously reported.^36 Trypanosomes were quantified using a Z2 Coulter Counter, and values of EC50 were determined after 3-4 days of treatment by the interpolation method of Huber and Koella.^37
For another data set, the target named is human cathepsin L (Homo sapiens (Human), UniProt P07711). As to the kind of experiment: Human cathepsin L inhibition, Z-FR-AMC assay. The following applies: pH 5.5, 25° C.; read-out: Ki* hCatL. It counts as biochemical. On the procedure: Recombinant human cathepsins B and L were purchased from Millipore Sigma and used without further treatment. The solid proteins were dissolved into a solution of 50 mM sodium acetate (pH 5.5), 1 mM EDTA, 1 mM CHAPS, 10% (v/v) DMSO, and 5 mM DTT to final concentrations of […] in 20-mL aliquots, and stored at −80° C. until needed. These samples were then diluted into the same buffer to concentrations of −100 nM, and these dilutions were stored at 4° C. and used daily until depletion.
For assays of cathepsin L and B, inhibitors were evaluated in 0.25-mL reaction mixtures containing a buffer of sodium acetate (pH 5.5), 1 mM CHAPS, 1 mM Na2EDTA, and 5 mM DTT at 25° C. The fluorogenic substrate Cbz-Phe-Arg-7-amino-4-methyl-coumarin (Z-FR-AMC) was dissolved in 100% DMSO, as were all inhibitors, and aliquots of both substrates and inhibitors were added to reaction mixtures to final concentrations of DMSO of 10% (v/v). […] Formation of the fluorescent product AMC was monitored over 30-60-minute time courses for reaction mixtures in 96-well black microplates (Corning Costar®). Rates of peptidolysis of the dipeptide-AMC substrate(s) were measured on either a SpectraMax M5 (Molecular Devices) or a Synergy HTX (Biotek, Wisnooki, VT) microplate reader with λex=360 nm, λem=460 nm in ≥8-sec intervals. Control samples excluded substrate. The measured relative fluorescence units (RFUs) of generated AMC were converted to reaction rates of μM/s by use of a standard curve of known AMC concentrations obtained for both plate readers.

Data set [7] has as its system SARS-CoV-2 in Vero E6 cells. Briefly: Anti-CoV-2 activity in Vero E6 cells. It counts as cell-based.
The next data set has as its target SARS-CoV-2 3CL protease (Severe acute respiratory syndrome coronavirus 2 (2019-nCoV) (SARS-CoV-2), UniProt P0DTD1). As to the kind of experiment: biochemical. The class given is biochemical. The following applies: pH 7.5.
[8] abbreviates: apparent tight-binding inhibition constant, 25° C., read-out: Ki*.
Where [9] appears, read: 1 mM glutathione, room temperature.
The mark [10] stands for this setting: apparent initial inhibition constant, 25° C., read-out: Ki.

Chain of cruzain (P25779 123-467 limits assumed): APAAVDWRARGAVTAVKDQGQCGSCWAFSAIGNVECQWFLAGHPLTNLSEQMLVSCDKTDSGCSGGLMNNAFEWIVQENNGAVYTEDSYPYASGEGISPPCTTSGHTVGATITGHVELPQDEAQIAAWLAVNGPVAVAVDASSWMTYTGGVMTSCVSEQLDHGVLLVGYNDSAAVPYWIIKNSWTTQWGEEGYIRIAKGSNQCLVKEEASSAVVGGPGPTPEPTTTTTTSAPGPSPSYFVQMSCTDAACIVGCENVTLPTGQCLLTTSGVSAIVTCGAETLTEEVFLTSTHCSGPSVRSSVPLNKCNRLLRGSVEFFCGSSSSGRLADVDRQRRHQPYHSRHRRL
Chain of human cathepsin L (P07711 114-333): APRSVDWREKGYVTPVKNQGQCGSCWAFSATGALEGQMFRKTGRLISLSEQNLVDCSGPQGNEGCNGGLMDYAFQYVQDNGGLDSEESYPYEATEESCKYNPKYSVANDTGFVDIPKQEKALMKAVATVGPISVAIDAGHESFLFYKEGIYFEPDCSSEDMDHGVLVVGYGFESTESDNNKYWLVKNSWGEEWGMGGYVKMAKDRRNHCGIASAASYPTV

For the molecule `C[n+]1ccsc1/C=C/[C@H](Cc1ccccc1)NC(=O)[C@H](Cc1ccccc1)NC(=O)OCc1ccccc1.[I-]` [Compound 26, 2-((S,E)-3-((S)-2-(((Benzyloxy)carbonyl)amino)-3-phenylpropanamido)-4-phenylbut-1-en-1-yl)-3-methylthiazol-3-ium Iodide], the Ki on cruzain (setting [8]) was found to be 0.94 ± 0.06 µM. The “Rate of Thiolation, k” value in data set [1] (setting [9]) worked out at 0.25 ± 0.083 M⁻¹ s⁻¹.

`O=C(N[C@@H](Cc1ccccc1)C(=O)N[C@H](/C=C/c1nccs1)Cc1ccccc1)OCc1ccccc1` [Compound 25, Benzyl ((S)-1-Oxo-3-phenyl-1-(((S,E)-1-phenyl-4-(thiazol-2-yl)-but-3-en-2-yl)amino)propan-2-yl)carbamate]: the Ki on cruzain (setting [8]) was determined as 1.71 µM. Moreover, the “Rate of Thiolation, k” value in [1] (setting [9]) is given as “Negligible”.

With `C[C@@H](/C=C/c1ncccn1)NC(=O)[C@H](Cc1ccccc1)NC(=O)OCc1ccccc1` [Compound 10, Benzyl ((S)-1-Oxo-3-phenyl-1-(((S,E)-4-(pyrimidin-2-yl)but-3-en-2-yl)amino)propan-2-yl)carbamate], the EC50 in data set [2] (Trypanosoma cruzi, C2C12, C2C12 murine cardiomyoblasts) lay within 5 to 8 µM. For the same molecule, the CC50 at 48 h in data set [3] was above 10 µM. Besides, the Ki was 58 µM on cruzain (setting [10]); 0.28 µM at cruzain (apparent tight-binding inhibition constant, 25° C.); 25 ± 1 µM at cruzain (setting [8]).

With `O=C(N[C@@H](Cc1ccccc1)C(=O)N[C@H](/C=C/c1ncco1)Cc1ccccc1)OCc1ccccc1` [Compound 24, Benzyl ((S)-1-(((S,E)-4-(Oxazol-2-yl)-1-phenylbut-3-en-2-yl)-amino)-1-oxo-3-phenylpropan-2-yl)carbamate], the EC50 was 27 ± 5 µM in data set [4] (Trypanosoma brucei) and above 20 µM in data set [5] (Trypanosoma cruzi, read-out: T. cruzi axenic culture EC50, epimastigotes). Also, the “T. cruzi axenic culture EC50” value in data set [5] is “poorly effective”. For the same molecule, the figures for the Ki on cruzain (setting [10]) and on cruzain (setting [8]) were 10 ± 1 µM and 0.71 ± 0.01 µM, respectively. The CC50 in the data set with human dermal fibroblasts was above 100 µM.

Regarding `O=C[C@H](Cc1ccccc1)NC(=O)[C@H](Cc1ccccc1)NC(=O)OCc1ccccc1` [Compound 28] (Cbz-Phe-Phe-aldehyde), the EC50 is 8 µM in data set [4]; 0.5 µM and 0.25 µM in data set [2] (C2C12 murine cardiomyoblasts); 3 µM and 3.3 µM in [6]; 0.5 µM in data set [7]. In addition, the Ki is 0.00031 µM at human cathepsin L; 0.00044 µM at cruzain (obtained >10 minutes following initiation of reaction by addition of enzyme, read-out: Ki* Cruzain); above 10 µM at SARS-CoV-2 3CL protease (read-out: Ki* 3CLpro). The k4 entry on cruzain (conversion of EI* back to EI, from kobs replot or recovery after preincubation and dilution) is “(7.6±0.6)×10^−4 s^−1”. Also, the “residence time τ” value at cruzain (preincubation, dilution, recovery of cruzain activity) amounted to 52 min. The “Ki* 3CLpro” value at SARS-CoV-2 3CL protease is “not an inhibitor of 3CL protease”.

Consider `O=C(N[C@@H](Cc1ccccc1)C(=O)N[C@H](/C=C/c1cc(C(F)(F)F)ccn1)CCc1ccccc1)OCc1ccccc1` [Compound 17, Benzyl ((S)-1-Oxo-3-phenyl-1-(((S,E)-5-phenyl-1-(4-(trifluoromethyl)pyridin-2-yl)pent-1-en-3-yl)amino)propan-2-yl)-carbamate], for which, in data set [4] (Trypanosoma brucei, at 20 μM, read-out: inhibition of cell growth), the inhibition at 20 µM was at most 50%. For the same molecule, in data set [5], the “T. cruzi axenic culture EC50” value is reported as “poorly effective”. Besides, the Ki at cruzain (setting [8]) came to 0.57 ± 0.05 µM. In data set [1] (5 mM glutathione), the “Rate of Thiolation, k” value was “Negligible”.

One may read the EC50 as the concentration giving half of the maximal effect. As a reminder, the CC50 is the concentration giving 50% cytotoxicity. The term inhibition denotes the percentage by which the read-out fell short of the control.
